Measured values: PubChem BioAssay AID256 (DTP/NCI, 2004)
Where “and” joins values, the source holds several entries; their conditions need not be identical. Identical values can stand only once. Inconclusive results and toxic doses are left out. How the source made its calls: active means survival T/C of 150% or more; inactive means T/C below 125% in these data.

Test system: CD2F1 mice, L1210 leukemia ip, survival T/C
Experiment: NCI In Vivo Anticancer Drug Screen. Data for tumor model L1210 Leukemia (intraperitoneal) in CD2F1 (CDF1) mice
Conditions: endpoint: mean survival time, higher = longer survival
Method in brief: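 Compound-dosed mice with transplantable tumor versus matched vehicle controls; endpoint ratio T/C reported.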

[1] = dose: 12.5 mg/kg/injection, schedule: Q01DX005 (ip), vehicle: water
[2] = dose: 25.0 mg/kg/injection, schedule: Q01DX005 (ip), vehicle: water
[3] = dose: 50.0 mg/kg/injection, schedule: Q01DX005 (ip), vehicle: water
[4] = dose: 100.0 mg/kg/injection, schedule: Q01DX005 (ip), vehicle: water
[5] = dose: 200.0 mg/kg/injection, schedule: Q01DX005 (ip), vehicle: water
[6] = dose: 100.0 mg/kg/injection, schedule: Q01DX009 (ip), vehicle: saline with Tween-80
[7] = dose: 200.0 mg/kg/injection, schedule: Q01DX009 (ip), vehicle: saline with Tween-80
[8] = dose: 400.0 mg/kg/injection, schedule: Q01DX009 (ip), vehicle: saline with Tween-80
[9] = dose: 25.0 mg/kg/injection, schedule: Q04DX003 (ip), vehicle: Klucel (hydroxypropylcellulose) (HPC)
[10] = dose: 50.0 mg/kg/injection, schedule: Q04DX003 (ip), vehicle: Klucel (hydroxypropylcellulose) (HPC)
[11] = dose: 50.0 mg/kg/injection, schedule: Q01DX009 (ip), vehicle: saline with Tween-80
[12] = dose: 12.5 mg/kg/injection, schedule: Q01DX009 (ip), vehicle: saline

Measured: T/C

Cc1cn(C(C=O)OC(C=O)CO)c(=O)[nH]c1=O (stereo not drawn)
inactive: dose: 10.0 mg/kg/injection, schedule: Q01DX005 (ip), vehicle: water 107 % of control | dose: 10.0 mg/kg/injection, schedule: Q01DX009 (ip), vehicle: water 104 % of control | [1] 104 % of control | dose: 20.0 mg/kg/injection, schedule: Q01DX005 (ip), vehicle: water 102 % of control | dose: 20.0 mg/kg/injection, schedule: Q01DX009 (ip), vehicle: water 107 % of control | [2] 98 % of control | dose: 40.0 mg/kg/injection, schedule: Q01DX005 (ip), vehicle: water 112 % of control | dose: 40.0 mg/kg/injection, schedule: Q01DX009 (ip), vehicle: water 124 % of control | [3] 104 % of control | dose: 80.0 mg/kg/injection, schedule: Q01DX009 (ip), vehicle: water 120 % of control | [4] 104 % of control | dose: 160.0 mg/kg/injection, schedule: Q01DX009 (ip), vehicle: water 102 % of control | [5] 109 % of control

CCCc1cc(=O)n(CCCc2ccccc2)c(=O)n1CCCc1ccccc1
inactive: dose: 100.0 mg/kg/injection, schedule: Q01DX001 (ip), vehicle: Klucel (hydroxypropylcellulose) (HPC) 103 % of control | dose: 200.0 mg/kg/injection, schedule: Q01DX001 (ip), vehicle: Klucel (hydroxypropylcellulose) (HPC) 97 % of control | dose: 400.0 mg/kg/injection, schedule: Q01DX001 (ip), vehicle: Klucel (hydroxypropylcellulose) (HPC) 90 % of control

NC(=S)NNC(N)=S
inactive: [6] 101 % of control | dose: 100.0 mg/kg/injection, schedule: Q04DX003 (ip), vehicle: saline with Tween-80 104 % of control | [7] 95 % of control | dose: 200.0 mg/kg/injection, schedule: Q04DX003 (ip), vehicle: saline with Tween-80 102 % of control | [8] 110 % of control | dose: 400.0 mg/kg/injection, schedule: Q04DX003 (ip), vehicle: saline with Tween-80 107 % of control

CC(=O)NC1CCCCC1
inactive: [6] 104 % of control | [7] 102 % of control

C=C(Br)CNCCCCCC
inactive: dose: 12.5 mg/kg/injection, schedule: Q04DX003 (ip), vehicle: Klucel (hydroxypropylcellulose) (HPC) 97 % of control | [9] 100 % of control | [10] 94 % of control

CC(N)C(=O)O (stereo not drawn)
inactive: dose: 100.0 mg/kg/injection, schedule: Q01DX001 (ip), vehicle: saline 106 % of control | dose: 200.0 mg/kg/injection, schedule: Q01DX001 (ip), vehicle: saline 112 % of control | dose: 400.0 mg/kg/injection, schedule: Q01DX001 (ip), vehicle: saline 98 % of control

O=S(=O)(c1ccccc1)N1CN2CCN(C2)C1
inactive: dose: 12.5 mg/kg/injection, schedule: Q01DX009 (ip), vehicle: saline with Tween-80 95 % of control and 110 % of control | dose: 25.0 mg/kg/injection, schedule: Q01DX009 (ip), vehicle: saline with Tween-80 97 % of control and 100 % of control | [11] 102 % of control and 106 % of control | [6] 101 % of control and 111 % of control | [7] 117 % of control and 107 % of control | [8] 117 % of control and 105 % of control

OCCOc1ccc2ccccc2c1-c1c(OCCOc2ccc3ccccc3c2-c2c(OCCO)ccc3ccccc23)ccc2ccccc12
inactive: dose: 25.0 mg/kg/injection, schedule: Q01DX001 (ip), vehicle: saline with Tween-80 95 % of control | dose: 50.0 mg/kg/injection, schedule: Q01DX001 (ip), vehicle: saline with Tween-80 91 % of control | dose: 100.0 mg/kg/injection, schedule: Q01DX001 (ip), vehicle: saline with Tween-80 86 % of control | dose: 400.0 mg/kg/injection, schedule: Q01DX001 (ip), vehicle: saline with Tween-80 86 % of control

O=[N+]([O-])c1ccc2nocc2c1
inactive: [9] 105 % of control | [10] 97 % of control | dose: 100.0 mg/kg/injection, schedule: Q04DX003 (ip), vehicle: Klucel (hydroxypropylcellulose) (HPC) 101 % of control

COc1ccc(C(O)C#N)cc1O (stereo not drawn)
inactive: dose: 3.13 mg/kg/injection, schedule: Q01DX009 (ip), vehicle: saline 101 % of control | dose: 6.25 mg/kg/injection, schedule: Q01DX009 (ip), vehicle: saline 103 % of control | dose: 6.25 mg/kg/injection, schedule: Q04DX003 (ip), vehicle: saline 101 % of control | [12] 101 % of control | dose: 12.5 mg/kg/injection, schedule: Q04DX003 (ip), vehicle: saline 106 % of control

Cc1csc(NC(=O)Nc2ccc(F)cc2[N+](=O)[O-])n1
inactive: [12] 103 % of control | dose: 25.0 mg/kg/injection, schedule: Q01DX009 (ip), vehicle: saline 112 % of control | dose: 50.0 mg/kg/injection, schedule: Q01DX009 (ip), vehicle: saline 103 % of control

CN1CCC(c2ccccc2)c2ccccc21 (stereo not drawn)
inactive: dose: 50.0 mg/kg/injection, schedule: Q04DX003 (ip), vehicle: other 97 % of control | dose: 100.0 mg/kg/injection, schedule: Q04DX003 (ip), vehicle: other 100 % of control | dose: 200.0 mg/kg/injection, schedule: Q04DX003 (ip), vehicle: other 100 % of control | dose: 400.0 mg/kg/injection, schedule: Q04DX003 (ip), vehicle: other 100 % of control

CCOC(=O)c1ccc(NCN2C(=O)CCC2=O)cc1
inactive: [6] 95 % of control | [7] 101 % of control | [8] 102 % of control

c1ccc2nc3c4ccccc4c4ccccc4c3nc2c1
inactive: dose: 100.0 mg/kg/injection, schedule: Q04DX002 (ip), vehicle: Klucel (hydroxypropylcellulose) (HPC) 97 % of control | dose: 200.0 mg/kg/injection, schedule: Q04DX002 (ip), vehicle: Klucel (hydroxypropylcellulose) (HPC) 97 % of control | dose: 400.0 mg/kg/injection, schedule: Q04DX002 (ip), vehicle: Klucel (hydroxypropylcellulose) (HPC) 97 % of control

O=c1[nH]c(=O)n2c3c1nnn3CC1OC2C(O)C1O (stereo not drawn)
inactive: [1] 93 % of control | [2] 93 % of control | [3] 95 % of control | [4] 89 % of control | [5] 95 % of control

C=C(C)CC1(CC)C(=O)NC(=S)NC1=O
inactive: [11] 102 % of control | [6] 101 % of control
